This passage reports activation results from patent US8748412B2, “Phenylalanine derivatives and their use as non-peptide GLP-1 receptor modulators” (Argusina Bioscience Inc., priority 2011, dated 2014).

SMILES strings stand for the structures.

T1 sequence (P43220 24-463): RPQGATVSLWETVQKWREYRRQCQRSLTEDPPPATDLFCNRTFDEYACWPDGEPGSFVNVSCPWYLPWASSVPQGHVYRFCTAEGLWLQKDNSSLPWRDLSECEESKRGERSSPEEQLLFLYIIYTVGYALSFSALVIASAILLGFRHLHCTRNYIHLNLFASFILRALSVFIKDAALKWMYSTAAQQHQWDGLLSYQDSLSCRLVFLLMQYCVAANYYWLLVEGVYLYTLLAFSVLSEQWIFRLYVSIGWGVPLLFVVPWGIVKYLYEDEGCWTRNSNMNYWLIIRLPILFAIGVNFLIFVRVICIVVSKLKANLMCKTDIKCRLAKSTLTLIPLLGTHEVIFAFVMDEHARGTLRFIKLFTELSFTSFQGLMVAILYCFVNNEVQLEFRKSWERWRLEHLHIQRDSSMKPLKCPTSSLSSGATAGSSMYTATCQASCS

One assay addresses T1, human GLP1R (Homo sapiens, UniProt P43220).
T1 construct: expressed in transfected cells; host or cells: CHO cells (ATCC), transient transfection with pCMV-human GLP1R
The assay is described as follows: Human GLP-1 receptor transfected cell assay (MRE/CRE-luciferase reporter gene, agonist activity). Format: cell-based. Conditions: 6 h; concentration 1 μM; read-out: Activity (agonist), percentage of the activity of the control. Here is the method: The glucagon-like peptide I receptor (GLP1R) is a class B Gs-coupled membrane receptor, an agonist of which activates adenylate cyclase (AC) and elevates intracellular cAMP level. In turn, the high content of secondary messengers can activate the cAMP response element binding protein (CREB), which can translocate into nucleus to activate gene transcription.
A reporter gene based screening assay was established to measure the effect of a compound on GLP1R. In this assay, a compound was incubated with CHO cells transiently transfected with a human GLP1R plasmid and a multiple response element (MRE)/cAMP response element (CRE)-driven luciferase reporter plasmid. Once luciferase was induced by the compound, its specific substrate can be activated to produce light signal for measurement.
Materials used in this assay included: (i) cell line: Chinese hamster ovary (CHO) cells (ATCC); (ii) fetal bovine serum (FBS) (Biochrom Co.); (iii) culture medium: RPMI1640 (Invitrogen Co.) supplemented with 10% FBS; (iv) LIPOFECTAMINE™ 2000 Reagent (Invitrogen Co.); (v) plasmids: pCMV-human GLP1R and pGL3-1905 reporter plasmid; (vi) GLP1 (7-36 amide) peptide (Sigma Co.); and (vii) BRIGHT-GLO™ Luciferase Assay System (Promega Co.).
Instruments used in this assay included: (i) Form a carbon dioxide incubator (Thermo Form a Co.); and (ii) Flexstation 3 (Molecular Device Co.).
Before transfection, CHO cells were plated into a 6-well culture plate at 800,000/2 mL/well, and cultured at 37° C. in 5% CO2 overnight. On the transfection day, cells were transfected with receptor plasmid and reporter plasmid using LIPOFECTAMINE™ 2000 reagent. After 6-hour transfection, cells were digested and seeded into 96-well plates at 20,000/100 μL/well. After 14-16 hour incubation, transfected cells were washed with 100 μL serum-free RPMII 640 medium first, and then added 50 μL of the culture medium. The GLP-1 standard and test compounds were respectively diluted to a series of concentrations, which were then added into the above 96-well culture plate at 50 μL/well. The cells were incubated at 37° C. in 5% CO2 for 6 hrs. The activity of luciferase was detected using BRIGHT-GLO™ Luciferase Analytic System, and the reading was performed with a Flexstation3 plate reader machine.
Take `Cc1ccc(-c2ccc(C(=O)NC(Cc3ccc(-c4noc(-c5ccc(NC(=O)OC(C)(C)C)cc5)n4)c(F)c3)C(=O)O)o2)cc1F` (stereo not shown) [Compound 1N]: the activation at 1 µM is over 60%.

For `Cc1ccc(-c2cccc(C(=O)NC(Cc3ccc(-c4noc(-c5ccc(NC(=O)OC(C)(C)C)cc5)n4)c(F)c3)C(=O)O)c2)cc1` (stereo not shown) [Compound 1U], the activation at 1 µM is over 60%.

Take `CC(C)(C)OC(=O)Nc1ccc(-c2nc(-c3ccc(CC(NC(=O)c4cccc(-c5ccc(F)cc5)c4)C(=O)O)cc3F)no2)cc1` (stereo not shown) [Compound 1V]: the activation at 1 µM was 40 to 60%.

Regarding `Cc1ccc(-c2ccc(C(=O)NC(Cc3ccc(-c4noc(-c5ccc(NC(=O)OC(C)C)cc5)n4)c(F)c3)C(=O)O)o2)cc1` (stereo not shown) [Compound 2D], the activation at 1 µM lay in the range of 40 to 60%.

With `CC(C)(C)OC(=O)Nc1ccc(-c2nc(-c3ccc(CC(NC(=O)c4cccc(-c5ccc(C6CC6)cc5)c4)C(=O)O)cc3F)no2)cc1` (stereo not shown) [Compound 2L], the activation at 1 µM is over 60%.

The assay is the same for the next values; noted with them: 6 h; concentration 3 μM; read-out: Activity (agonist), percentage of the activity of the control.
On to `Cc1ccc(-c2ccc(C(=O)N[C@H](Cc3ccc(F)c(-c4noc(-c5ccc(NC(=O)OC(C)(C)C)cc5)n4)c3)C(=O)O)o2)cc1` [Compound 1E], for which the activation at 3 µM is 40 to 60%.

For the compound `Cc1ccc(-c2ccc(C(=O)NC(Cc3ccc(-c4noc(-c5ccc(NC(=O)OC(C)(C)C)cc5C)n4)c(F)c3)C(=O)O)o2)cc1` (stereo not shown) [Compound 1R], the activation at 3 µM is 20 to 40%.

Consider `CC(C)(C)OC(=O)Nc1ccc(-c2nc(-c3ccc(CC(NC(=O)c4cccc(-c5ccc(C(F)(F)F)cc5)c4)C(=O)O)cc3F)no2)cc1` (stereo not shown) [Compound 1W], for which the activation at 3 µM is over 60%.

On to `CC(C)(C)OC(=O)Nc1ccc(-c2nc(-c3ccc(CC(NC(=O)c4ccc(-c5ccccn5)s4)C(=O)O)cc3F)no2)cc1` (stereo not shown) [Compound 1X], for which the activation at 3 µM was in the range of 40 to 60%.

As for `CC(C)(C)OC(=O)Nc1ccc(-c2nc(-c3ccc(CC(NC(=O)/C=C/c4ccc(Cl)c(C(F)(F)F)c4)C(=O)O)cc3F)no2)cc1` (stereo not shown) [Compound 2B], the activation at 3 µM fell in the range of 40 to 60%.

`Cc1ccc(-c2ccc(C(=O)NC(Cc3ccc(-c4noc(-c5ccc(NC(=O)C(C)C)cc5)n4)c(F)c3)C(=O)O)o2)cc1` (stereo not shown) [Compound 2C]: the activation at 3 µM fell in the range of 40 to 60%.

As for `Cc1ccc(-c2ccc(C(=O)N[C@H](Cc3cc(C)cc(-c4noc(-c5ccc(NC(=O)OC(C)(C)C)cc5)n4)c3)C(=O)O)o2)cc1` [Compound 2E], the activation at 3 µM fell in the range of 40 to 60%.

The assay is the same for the next values; noted with them: 6 h; concentration 3.16 μM; read-out: Activity (agonist), percentage of the activity of the control.
With `CC(C)(C)OC(=O)Nc1ccc(C(=O)NC(C)(Cc2ccc(OC(=O)c3ccc(NC(=O)OC(C)(C)C)cc3)c(F)c2)C(=O)O)cc1` (stereo not shown) [Compound 1B], the activation at 3.16 µM is over 60%.

As to `CC(C)(C)OC(=O)Nc1ccc(-c2nc(-c3ccc(CC(NC(=O)C4CC4c4ccccc4)C(=O)O)cc3F)no2)cc1` (stereo not shown) [Compound 1D], the activation at 3.16 µM lay within 20 to 40%.

For the compound `Cc1ccc(-c2ccc(C(=O)NC(Cc3ccc(-c4noc(-c5ccc(NC(=O)OC(C)(C)C)cc5)n4)c(F)c3)c3nnn[nH]3)o2)cc1` (stereo not shown) [Compound 1H], the activation at 3.16 µM is over 60%.

Take `CN(C)c1ccc(-c2ccc(C(=O)NC(Cc3ccc(-c4noc(-c5ccc(NC(=O)OC(C)(C)C)cc5)n4)c(F)c3)C(=O)O)o2)cc1` (stereo not shown) [Compound 1I]: the activation at 3.16 µM was over 60%.

As to `COc1ccc(-c2ccc(C(=O)NC(Cc3ccc(-c4noc(-c5ccc(NC(=O)OC(C)(C)C)cc5)n4)c(F)c3)C(=O)O)o2)cc1` (stereo not shown) [Compound 1J], the activation at 3.16 µM was over 60%.

Turning to `CC(C)(C)OC(=O)Nc1ccc(-c2nc(-c3ccc(CC(NC(=O)c4ccc(-c5ccc(Cl)cc5Cl)o4)C(=O)O)cc3F)no2)cc1` (stereo not shown) [Compound 1L], the activation at 3.16 µM was over 60%.

On to `CC(C)c1ccc(-c2ccc(C(=O)NC(Cc3ccc(-c4noc(-c5ccc(NC(=O)OC(C)(C)C)cc5)n4)c(F)c3)C(=O)O)o2)cc1` (stereo not shown) [Compound 1O], for which the activation at 3.16 µM was 20 to 40%.

Take `Cc1ccc(-c2ccc(C(=O)NC(Cc3ccc(-c4noc(-c5ccc(NC(=O)OC(C)(C)C)cc5C(F)(F)F)n4)c(F)c3)C(=O)O)o2)cc1` (stereo not shown) [Compound 1P]: the activation at 3.16 µM is over 60%.

For `Cc1ccc(-c2ccc(C(=O)NC(Cc3ccc(-c4noc(-c5ccc(NC(=O)OC(C)(C)C)cc5)n4)c(F)c3)C(=O)O)o2)cc1Cl` (stereo not shown) [Compound 1Q], the activation at 3.16 µM was over 60%.

Regarding `CC(C)(C)OC(=O)Nc1ccc(-c2nc(-c3ccc(CC(NC(=O)c4cccc(-c5ccc(C#N)cc5)c4F)C(=O)O)cc3F)no2)cc1` (stereo not shown) [Compound 2J], the activation at 3.16 µM is over 60%.

On to `CC(C)c1ccc(-c2cccc(C(=O)NC(Cc3ccc(-c4noc(-c5ccc(NC(=O)OC(C)(C)C)cc5)n4)c(F)c3)C(=O)O)c2)cc1` (stereo not shown) [Compound 2K], for which the activation at 3.16 µM was over 60%.

As for `CC(C)(C)OC(=O)Nc1ccc(-c2nc(-c3ccc(CC(NC(=O)c4cccc(-c5ccc(C6CC6)cc5)n4)C(=O)O)cc3F)no2)cc1` (stereo not shown) [Compound 2M], the activation at 3.16 µM was over 60%.

In the case of `CC(C)(C)OC(=O)Nc1ccc(-c2nc(-c3ccc(CC(NC(=O)c4cccc(-c5ccc(Cl)cc5F)n4)C(=O)O)cc3F)no2)cc1` (stereo not shown) [Compound 2N], the activation at 3.16 µM is over 60%.

Staying with this assay, now noted: 6 h; concentration 5 μM; read-out: Activity (agonist), percentage of the activity of the control.
Turning to `Cc1ccc(-c2ccc(C(=O)NC(Cc3ccc(OC(=O)c4ccc(NC(=O)OC(C)(C)C)cc4)c(F)c3)C(=O)O)o2)cc1` (stereo not shown) [Compound 1A], the activation at 5 µM is over 60%.

For `CC(C)(C)OC(=O)Nc1ccc(-c2nc(-c3ccc(CC(NC(=O)c4ccnc(Cl)c4)C(=O)O)cc3F)no2)cc1` (stereo not shown) [Compound 1F], the activation at 5 µM is over 60%.

Still in this assay, the particulars now being: 6 h; concentration 10 μM; read-out: Activity (agonist), percentage of the activity of the control.
Turning to `CC(C)(C)OC(=O)Nc1ccc(-c2nc(-c3ccc(CC(NC(=O)/C=C/c4ccc(F)cc4)C(=O)O)cc3F)no2)cc1` (stereo not shown) [Compound 1C], the activation at 10 µM was over 60%.

For the compound `Cc1ccc(-c2ccc(C(=O)NC(Cc3ccc(-c4noc(-c5ccc(NC(=O)OC(C)(C)C)cc5)n4)c(F)c3)C(=O)O)o2)cc1` (stereo not shown) [Compound 1G, 3-{4-[5-(4-tert-Butoxycarbonylamino-phenyl)-[1,2,4]oxadiazol-3-yl]-3-fluoro-phenyl}-2-[(5-p-tolyl-furan-2-carbonyl)-amino]-propionic acid], the activation at 10 µM was over 60%.

As to `Cc1cccc(-c2ccc(C(=O)NC(Cc3ccc(-c4noc(-c5ccc(NC(=O)OC(C)(C)C)cc5)n4)c(F)c3)C(=O)O)o2)c1` (stereo not shown) [Compound 1K], the activation at 10 µM is over 60%.

Take `Cc1cc(-c2ccc(C(=O)NC(Cc3ccc(-c4noc(-c5ccc(NC(=O)OC(C)(C)C)cc5)n4)c(F)c3)C(=O)O)o2)ccc1F` (stereo not shown) [Compound 1M]: the activation at 10 µM is over 60%.

Turning to `CC(C)(C)OC(=O)Nc1ccc(-c2nc(-c3ccc(CC(NC(=O)c4cccc(-c5ccc(Cl)cc5)c4F)C(=O)O)cc3F)no2)cc1` (stereo not shown) [Compound 1S], the activation at 10 µM lay within 40 to 60%.

Turning to `CC(C)(C)OC(=O)Nc1ccc(-c2nc(-c3ccc(CC(NC(=O)c4cccc(-c5ccc(F)cc5)n4)C(=O)O)cc3F)no2)cc1` (stereo not shown) [Compound 1T], the activation at 10 µM fell in the range of 40 to 60%.

Regarding `CC(C)(C)OC(=O)Nc1ccc(-c2nc(-c3ccc(CC(NC(=O)c4cnc(-c5ccccc5)[nH]4)C(=O)O)cc3F)no2)cc1` (stereo not shown) [Compound 1Y], the activation at 10 µM is over 60%.

On to `CC(C)(C)OC(=O)Nc1ccc(-c2nc(-c3ccc(CC(NC(=O)c4cc(-c5ccccc5)cs4)C(=O)O)cc3F)no2)cc1` (stereo not shown) [Compound 1Z], for which the activation at 10 µM fell in the range of 40 to 60%.

As to `CC(C)(C)OC(=O)Nc1ccc(-c2nc(-c3ccc(CC(NC(=O)c4cn(-c5ccc(C(F)(F)F)cc5)nn4)C(=O)O)cc3F)no2)cc1` (stereo not shown) [Compound 2A], the activation at 10 µM was over 60%.

As to `Cc1ccc(-c2cccc(C(=O)NC(Cc3ccc(-c4noc(-c5ccc(NC(=O)OC(C)(C)C)cc5)n4)c(F)c3)C(=O)O)n2)cc1` (stereo not shown) [Compound 2F], the activation at 10 µM was 10 to 20%.

For `CC(C)(C)OC(=O)Nc1ccc(-c2nc(-c3ccc(CC(NC(=O)c4cccc(-c5ccc(Cl)cc5)c4)C(=O)O)cc3F)no2)cc1` (stereo not shown) [Compound 2G], the activation at 10 µM is 40 to 60%.

`CCc1ccc(-c2cccc(C(=O)NC(Cc3ccc(-c4noc(-c5ccc(NC(=O)OC(C)(C)C)cc5)n4)c(F)c3)C(=O)O)c2)cc1` (stereo not shown) [Compound 2I]: the activation at 10 µM was 40 to 60%.

Consider `CSc1ccc(-c2cccc(C(=O)NC(Cc3ccc(-c4noc(-c5ccc(NC(=O)OC(C)(C)C)cc5)n4)c(F)c3)C(=O)O)n2)cc1` (stereo not shown) [Compound 2O], for which the activation at 10 µM was over 60%.
